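Protocol summary: plate cells (96-well), add compound at 5 concentrations, incubate 48 h, interpolate endpoints linearly. GI50 = concentration required for 50% inhibition of growth. TGI denotes the concentration required for complete inhibition of growth.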
Key:
Assay in all cases: NCI tumour cell line growth inhibition, 48 h
HOP-18 NSCLC = test system: HOP-18 NSCLC
LXFL 529 NSCLC = test system: LXFL 529 NSCLC
DLD-1 colon = test system: DLD-1 colon
KM20L2 colon = test system: KM20L2 colon
M19-MEL melanoma = test system: M19-MEL melanoma
RXF-631 renal = test system: RXF-631 renal
BT-549 breast = test system: BT-549 breast
MDA-N = test system: MDA-N
T-47D breast = test system: T-47D breast

Structure (SMILES) | TGI (HOP-18 NSCLC) [µM] | TGI (LXFL 529 NSCLC) [µM] | TGI (DLD-1 colon) [µM] | TGI (KM20L2 colon) [µM] | TGI (M19-MEL melanoma) [µM] | TGI (BT-549 breast) [µM] | TGI (T-47D breast) [µM] | GI50 (BT-549 breast) [µM] | other results
CCC[CH2][Sn]([CH2]CCC)([O]C(=O)c1cc(F)cc(F)c1)[O][Sn]([CH2]CCC)([CH2]CCC)[O]C(=O)c1cc(F)cc(F)c1 | 3.38 | 0.612 | 2.41 | 10.6 | 2 | – | – | – | GI50 (HOP-18 NSCLC): 1.96 µM; GI50 (LXFL 529 NSCLC): 0.152 µM; GI50 (DLD-1 colon): 1.15 µM; GI50 (KM20L2 colon): 3.1 µM; GI50 (M19-MEL melanoma): 0.519 µM
OC1CCC[C@@H]1Sc1ccccc1 (stereo not given in full) | – | > 100 | > 100 | > 100 | > 100 | – | – | – | TGI (RXF-631 renal): > 100 µM
CCOC(=O)c1c2cccccc2n2c(=O)cc(C)nc12 | – | > 100 | – | > 100 | – | – | – | – | –
COC(=O)C1=C(C(=O)OC)C2OC1c1cc3ccccc3cc12 | – | – | – | – | – | 12 | 7.49 | – | TGI (MDA-N): 17.5 µM
O=C(NNC(=S)Nc1ccccc1)c1ccccn1 | – | – | – | – | – | > 100 | > 100 | 7.41 | GI50 (T-47D breast): 6.55 µM
O=C(O)CCSC(=S)Nc1cccc(F)c1 | > 100 | > 100 | > 100 | > 100 | 88.8 | – | – | – | –
CCOC(=O)c1cc(-c2ccc(OC)c(OC)c2)[nH]c1N/N=C/c1c(Cl)cccc1Cl | – | – | – | – | – | 12.5 | 55.4 | 2.49 | GI50 (T-47D breast): 5.98 µM
O=C(O)CCSC(=O)Nc1ccccc1Cl | > 100 | > 100 | > 100 | > 100 | > 100 | – | – | – | TGI (RXF-631 renal): > 100 µM
CC1CCc2c(c(CC3CC(=O)NC(=O)C3)nn2-c2ccccc2)C1 (stereo not given) | – | – | – | – | – | > 100 | > 100 | – | TGI (MDA-N): > 100 µM
COC(=O)C(=O)C(C(=O)C=C(C)C)C(=O)C(=O)Nc1nc2ccc([N+](=O)[O-])cc2s1 (stereo not given) | 54.6 | > 100 | > 100 | > 100 | > 100 | – | – | – | –
C=C1C(=O)OC2CC3(C)CCCC(C)C3=CC12 (stereo not given) | – | – | – | – | – | 18.5 | 11 | – | TGI (MDA-N): 11.4 µM
CC(O)CN1c2ccccc2Sc2ccc(Cl)cc21 (stereo not given) | – | – | – | – | – | > 10 | > 10 | – | TGI (MDA-N): > 10 µM
Cc1ccc(NC(=O)CC/C(CC(=O)C(C)(C)C)=N\Nc2ccc([N+](=O)[O-])cc2[N+](=O)[O-])cc1C | > 100 | > 100 | > 100 | > 100 | > 100 | – | – | – | TGI (RXF-631 renal): > 100 µM
O=C(Nc1nc(-c2ccc(Cl)cc2)nc2c1sc(=S)n2-c1ccccc1)C(F)(F)F | – | – | – | – | – | 38.2 | 5.05 | 6.37 | GI50 (T-47D breast): 2.05 µM
C=C1CCC2C3(C)COC(c4ccc(Cl)cc4)OC3CCC2(C)C1/C=C/C1=CCOC1=O (stereo not given) | – | – | – | – | – | 80.5 | 21.4 | 4.79 | GI50 (T-47D breast): 0.821 µM
COc1cc(/C=C\c2ccc(OC(C)=O)cc2)cc(OC)c1OC | – | > 100 | > 100 | > 100 | > 100 | – | – | – | TGI (RXF-631 renal): > 100 µM

Structure (SMILES) | TGI (HOP-18 NSCLC) [µM] | TGI (LXFL 529 NSCLC) [µM] | TGI (DLD-1 colon) [µM] | TGI (KM20L2 colon) [µM] | TGI (M19-MEL melanoma) [µM] | TGI (BT-549 breast) [µM] | TGI (T-47D breast) [µM] | GI50 (BT-549 breast) [µM] | other results
COc1cc(CC(C(=O)O)C(=O)O)c(OC)cc1CC(C(=O)O)C(=O)O | – | > 100 | > 100 | > 100 | > 100 | – | – | – | –
CC1=NN(C(=O)c2ccncc2)C(=O)C1N=Nc1ccc2ccccc2c1 (stereo not given) | – | – | – | – | – | > 100 | > 100 | – | TGI (MDA-N): 10.2 µM
C/C=C(/C)C(=O)OC1C=C(CO)C(=O)C(OC(=O)C(C)(O)C(C)Cl)C1C(C)C (stereo not given) | – | – | – | – | – | 4.71 | – | 1.95 | –
CCCN1C(=O)/C(=C/c2ccc(O)cc2)SC1=Nc1ccc(OC)cc1 | – | – | – | – | – | 34.9 | – | 15.3 | –
CSc1ccc(C2=NN(C(C)=O)C(c3ccc(F)cc3)C2)cc1 (stereo not given) | – | – | – | – | – | 40.2 | 41.4 | 20.3 | GI50 (T-47D breast): 11.5 µM
CC(=O)O[C@H]1C(=O)[C@@]2(C)[C@H]([C@H](OC(=O)c3ccccc3)[C@@]3(O)C[C@H](O)C(C)=C1C3(C)C)[C@]1(OC(C)=O)CO[C@@H]1C[C@@H]2O | – | – | – | – | – | > 100 | > 100 | – | TGI (MDA-N): 17.1 µM
CC1=C2[C@H](c3ccccc3)C3C=CC2(c2ccccc23)N(C(=O)C(c2ccccc2)c2ccccc2)C1=O (stereo not given in full) | > 100 | > 100 | > 100 | > 100 | > 100 | – | – | – | –
COC(=O)C(C(=O)C(=O)Nc1ccc(OC)cc1[N+](=O)[O-])c1nc2cc(C)c(C)cc2[nH]c1=O (stereo not given) | > 100 | > 100 | > 100 | > 100 | > 100 | – | – | – | TGI (RXF-631 renal): > 100 µM
COc1ccc(/C=C2\CC(C)CC3C2=NN(c2ccccc2)C3c2ccc(OC)c(OC)c2)cc1OC (stereo not given) | – | – | – | – | – | 79.7 | > 100 | 4.58 | GI50 (T-47D breast): 4.48 µM
COCOCC[C@@H]1CC=CC(NC(=O)OCc2ccccc2)C1/C=C/C(=O)CCC1OCCO1 (stereo not given in full) | > 100 | 73 | 33.4 | > 93.3 | 43.3 | – | – | – | –
Cc1cn2c(/C=C3/C(=O)Nc4ccc(F)cc43)c(C)nc2s1 | – | – | – | – | – | > 50 | > 50 | 8.52 | GI50 (T-47D breast): 10.2 µM
COc1ccc(CNc2cnc3cc(N)cc(N)c3n2)cc1 | – | – | – | – | – | 37.5 | > 100 | 17.8 | GI50 (T-47D breast): 73.8 µM
CCCCCCCCCOC(=S)NCCCCC | > 100 | > 100 | > 100 | 59.3 | > 100 | – | – | – | –
CCOC(=O)NC(=O)c1cn(CCN2CCNCC2)c(=O)[nH]c1=O | > 100 | > 100 | > 100 | – | > 100 | – | – | – | –
CC[C@@H](C)Nc1cc(C(=O)NC2CC3CCC(C2)N3c2ccc(C(=O)C3CC3)cn2)c(C)cc1C(N)=O (stereo not given in full) | – | – | – | – | – | > 84.9 | 36 | 5.54 | GI50 (T-47D breast): 0.0378 µM
COc1ccc(/C=c2/sc3n(c2=O)NC(c2ccc(Cl)cc2)NN=3)cc1 (stereo not given) | – | > 100 | > 100 | > 100 | > 100 | – | – | – | –

Reference: PubChem BioAssay (NCI)
